According to ChEMBL document CHEMBL1201862, “PubChem BioAssay data set” (2004):
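1) Cells in 96-well plates. 2) Compound, 48 h, 5 concentrations. 3) Linear interpolation between surrounding doses. 4) Unreached endpoint = highest concentration. At the GI50, growth is halved.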 Calls of active or inactive are those of the source. No stated cut-off is given here; in the data, active = GI50 up to about 1.1 µM and inactive = higher.

What was measured:
Test in all cases: NCI anticancer screen, dose series, 48 h
UO-31 = test system: UO-31
U-251 = test system: U-251
786-0 = test system: 786-0
A549 = test system: A549
CCRF-CEM = test system: CCRF-CEM
HOP-62 = test system: HOP-62
OVCAR-4 = test system: OVCAR-4
SK-OV-3 = test system: SK-OV-3
SK-MEL-2 = test system: SK-MEL-2
MOLT-4 = test system: MOLT-4
NCI-H23 = test system: NCI-H23
UACC-62 = test system: UACC-62
OVCAR-3 = test system: OVCAR-3
KM12 = test system: KM12
SNB-19 = test system: SNB-19
TK-10 = test system: TK-10
SF-268 = test system: SF-268
NCI-H522 = test system: NCI-H522
MDA-N = test system: MDA-N

Structure (SMILES)	GI50 (UO-31)	GI50 (U-251)	GI50 (786-0)	GI50 (A549)	GI50 (CCRF-CEM)	GI50 (HOP-62)	GI50 (OVCAR-4)	GI50 (SK-OV-3)	GI50 (SK-MEL-2)	GI50 (MOLT-4)	GI50 (NCI-H23)	GI50 (UACC-62)	GI50 (OVCAR-3)	GI50 (KM12)	GI50 (SNB-19)	GI50 (TK-10)	GI50 (SF-268)	GI50 (NCI-H522)	GI50 (MDA-N)
CCOC(=O)c1c(-c2ccccc2)oc(=O)c(Cc2cccc3cccnc23)c1-c1ccccc1	> 10 µM (inactive)	> 10 µM (inactive)	> 10 µM (inactive)	> 10 µM (inactive)	> 10 µM (inactive)	> 10 µM (inactive)	> 10 µM (inactive)	> 10 µM (inactive)	> 10 µM (inactive)	> 10 µM (inactive)	> 10 µM (inactive)	> 10 µM (inactive)	> 10 µM (inactive)	> 10 µM (inactive)	> 10 µM (inactive)	> 10 µM (inactive)	> 10 µM (inactive)	> 10 µM (inactive)	–
O=C1NC(=O)C(=Cc2c3ccccc3cc3ccccc23)C(=O)N1	> 100 µM (inactive)	> 100 µM (inactive)	> 100 µM (inactive)	> 100 µM (inactive)	59.3 µM (inactive)	> 100 µM (inactive)	–	> 100 µM (inactive)	–	55.5 µM (inactive)	> 100 µM (inactive)	> 100 µM (inactive)	–	–	> 100 µM (inactive)	> 100 µM (inactive)	> 100 µM (inactive)	> 100 µM (inactive)	–
O=C1CCCc2c1c1c(n2Cc2ccccc2)-c2ccccc2C1=O	23.7 µM (inactive)	20.7 µM (inactive)	21.6 µM (inactive)	23 µM (inactive)	31 µM (inactive)	25.5 µM (inactive)	14 µM (inactive)	18.8 µM (inactive)	18.9 µM (inactive)	–	14.9 µM (inactive)	17.9 µM (inactive)	16 µM (inactive)	17.9 µM (inactive)	15.4 µM (inactive)	10.5 µM (inactive)	22.2 µM (inactive)	12.3 µM (inactive)	–
CN1CC(C(=O)C2C(=O)c3ccccc3C2=O)C(=O)C(=O)C(C(=O)C2C(=O)c3ccccc3C2=O)C1 (stereo unspecified)	> 100 µM (inactive)	> 100 µM (inactive)	> 100 µM (inactive)	> 100 µM (inactive)	> 100 µM (inactive)	> 10 µM (inactive)	–	> 100 µM (inactive)	> 100 µM (inactive)	> 100 µM (inactive)	> 100 µM (inactive)	> 100 µM (inactive)	> 10 µM (inactive)	> 100 µM (inactive)	> 100 µM (inactive)	> 100 µM (inactive)	> 100 µM (inactive)	> 100 µM (inactive)	–
Cc1ccc2c(c1)-c1nc(N)c(C#N)c(-c3ccc(Cl)cc3)c1CCS2(=O)=O	20 µM (inactive)	40 µM (inactive)	40.6 µM (inactive)	34.8 µM (inactive)	20.7 µM (inactive)	–	52 µM (inactive)	–	22.5 µM (inactive)	–	39.4 µM (inactive)	28.2 µM (inactive)	–	33.3 µM (inactive)	50.6 µM (inactive)	66.4 µM (inactive)	67.6 µM (inactive)	29.8 µM (inactive)	39.3 µM (inactive)
CCOC(=O)c1c(NC(=O)c2ccccc2)sc2c1CCC2	> 100 µM (inactive)	–	> 100 µM (inactive)	> 100 µM (inactive)	> 100 µM (inactive)	> 100 µM (inactive)	–	–	> 100 µM (inactive)	> 100 µM (inactive)	> 100 µM (inactive)	> 100 µM (inactive)	> 100 µM (inactive)	> 100 µM (inactive)	> 100 µM (inactive)	> 100 µM (inactive)	> 100 µM (inactive)	–	> 100 µM (inactive)
CC(=O)NC1C(OCc2ccccc2)OC(CO)C(O)C1OC(C)C(=O)NC(C(=O)NC(CCC(=O)NCCCC(=O)Nc1ccc2c(c1)CN1C(=O)c3ccccc3C1=N2)C(N)=O)C(C)C (stereo unspecified)	> 100 µM (inactive)	> 100 µM (inactive)	> 100 µM (inactive)	> 100 µM (inactive)	> 100 µM (inactive)	> 100 µM (inactive)	> 100 µM (inactive)	> 100 µM (inactive)	> 100 µM (inactive)	> 100 µM (inactive)	> 100 µM (inactive)	> 100 µM (inactive)	> 100 µM (inactive)	> 100 µM (inactive)	> 100 µM (inactive)	> 100 µM (inactive)	> 100 µM (inactive)	–	> 100 µM (inactive)
Cc1cc(C)nc(NS(=O)(=O)c2ccc(NC(=O)c3ccc4nc5ccccc5c(Nc5ccc(S(N)(=O)=O)cc5)c4c3)cc2)n1	> 100 µM (inactive)	59 µM (inactive)	> 100 µM (inactive)	> 100 µM (inactive)	28.2 µM (inactive)	> 100 µM (inactive)	83.8 µM (inactive)	> 100 µM (inactive)	42.9 µM (inactive)	50.6 µM (inactive)	> 100 µM (inactive)	> 100 µM (inactive)	48.5 µM (inactive)	65.8 µM (inactive)	> 100 µM (inactive)	> 100 µM (inactive)	> 100 µM (inactive)	34.2 µM (inactive)	–
CCOC(=O)c1cc2c(=Cc3ccc(N(C)C)cc3)c3ccccc3n2[n+]1C	6.12 µM (inactive)	0.304 µM (active)	1.93 µM (inactive)	3.71 µM (inactive)	–	< 0.01 µM (active)	3.1 µM (inactive)	3.94 µM (inactive)	1.48 µM (inactive)	1.9 µM (inactive)	2.55 µM (inactive)	1.33 µM (inactive)	0.206 µM (active)	–	2.15 µM (inactive)	7.67 µM (inactive)	3.21 µM (inactive)	–	1.23 µM (inactive)
COC1(c2ccccc2)N=C(S)NN=C1c1ccccc1 (stereo unspecified)	> 100 µM (inactive)	21.2 µM (inactive)	41.7 µM (inactive)	45.2 µM (inactive)	28.2 µM (inactive)	44.8 µM (inactive)	–	26.7 µM (inactive)	27.9 µM (inactive)	35.4 µM (inactive)	36.6 µM (inactive)	51.4 µM (inactive)	30.9 µM (inactive)	39.8 µM (inactive)	54.2 µM (inactive)	48.2 µM (inactive)	37.2 µM (inactive)	24.9 µM (inactive)	21.5 µM (inactive)
CCN(CCCl)c1ccc(NC(=O)c2cc(C(=O)NCCN(C)C)cc(C(=O)Nc3ccc(N(CC)CCCl)cc3)c2)cc1	> 100 µM (inactive)	2.18 µM (inactive)	0.942 µM (active)	6.24 µM (inactive)	0.0687 µM (active)	1.82 µM (inactive)	9.38 µM (inactive)	4.26 µM (inactive)	15.7 µM (inactive)	0.151 µM (active)	3.33 µM (inactive)	4.98 µM (inactive)	–	8.65 µM (inactive)	1.36 µM (inactive)	16.7 µM (inactive)	0.891 µM (active)	2.3 µM (inactive)	11.1 µM (inactive)
CC(=O)OCc1cc2ccccc2nc1C(Br)(Br)Br	15.6 µM (inactive)	14 µM (inactive)	19.4 µM (inactive)	16.4 µM (inactive)	10.9 µM (inactive)	26.1 µM (inactive)	11.8 µM (inactive)	28.3 µM (inactive)	18.5 µM (inactive)	9.02 µM (inactive)	13.6 µM (inactive)	15.5 µM (inactive)	14.8 µM (inactive)	13 µM (inactive)	20.1 µM (inactive)	16.1 µM (inactive)	17.8 µM (inactive)	16 µM (inactive)	–
O=C(O/N=C1/CCCC/C1=C\c1ccccc1)c1ccccc1	> 100 µM (inactive)	92.7 µM (inactive)	> 100 µM (inactive)	> 100 µM (inactive)	36.8 µM (inactive)	> 100 µM (inactive)	–	> 100 µM (inactive)	> 100 µM (inactive)	24.5 µM (inactive)	> 100 µM (inactive)	> 100 µM (inactive)	> 100 µM (inactive)	45.3 µM (inactive)	> 100 µM (inactive)	> 100 µM (inactive)	33.3 µM (inactive)	27.7 µM (inactive)	–
Cn1c2ccccc2c2c3c(c4c5ccccc5n(C)c4c21)C(=O)NC3=O	> 54.2 µM (inactive)	16.8 µM (inactive)	3.89 µM (inactive)	> 19.7 µM (inactive)	> 100 µM (inactive)	12.2 µM (inactive)	5.3 µM (inactive)	5.35 µM (inactive)	> 26.5 µM (inactive)	> 100 µM (inactive)	15.1 µM (inactive)	> 32.9 µM (inactive)	–	3.96 µM (inactive)	15.3 µM (inactive)	18.2 µM (inactive)	97.5 µM (inactive)	21.2 µM (inactive)	–
C[N+]1(c2ccccc2)C=C(c2ccccc2)SC1=S (stereo unspecified)	> 100 µM (inactive)	> 100 µM (inactive)	> 100 µM (inactive)	> 100 µM (inactive)	–	> 100 µM (inactive)	–	–	58.3 µM (inactive)	–	> 100 µM (inactive)	> 100 µM (inactive)	8.22 µM (inactive)	> 100 µM (inactive)	> 100 µM (inactive)	> 100 µM (inactive)	> 100 µM (inactive)	30.6 µM (inactive)	–
Cc1cc(N(CCCCl)CCCCl)ccc1/C=N/c1cccc(Cl)c1	10.5 µM (inactive)	15.7 µM (inactive)	14.2 µM (inactive)	12.3 µM (inactive)	–	–	12.4 µM (inactive)	19.1 µM (inactive)	16.4 µM (inactive)	4.41 µM (inactive)	< 0.01 µM (active)	0.74 µM (active)	14.5 µM (inactive)	13.5 µM (inactive)	15.3 µM (inactive)	10.6 µM (inactive)	12.2 µM (inactive)	17.5 µM (inactive)	–
